Measured values from patent publication US5620864A, “Acceptor for fucosyl transferase” (Health Research, Inc., priority 1992, dated 1997).

Assays:
[1] = biological target: T1, serum α1,3-L-fucosyltransferase (Homo sapiens, UniProt P51993); test: Assay of α1,3-fucosyltransferase with various synthetic acceptors, ovarian cancer sera as enzyme source; assay type: biochemical; conditions: for Relative Percent: 2'-methyl LacNAc = 100; for [14C] Fucose Incorporated (CPM): acceptor 0.3 mM, 37° C. 18 h
T1 construct: Sera were collected from healthy females and ovarian cancer patients; from tissue; host or cells: blood serum of ovarian cancer patients and healthy females
T1 sequence (P51993 35-359 limits assumed): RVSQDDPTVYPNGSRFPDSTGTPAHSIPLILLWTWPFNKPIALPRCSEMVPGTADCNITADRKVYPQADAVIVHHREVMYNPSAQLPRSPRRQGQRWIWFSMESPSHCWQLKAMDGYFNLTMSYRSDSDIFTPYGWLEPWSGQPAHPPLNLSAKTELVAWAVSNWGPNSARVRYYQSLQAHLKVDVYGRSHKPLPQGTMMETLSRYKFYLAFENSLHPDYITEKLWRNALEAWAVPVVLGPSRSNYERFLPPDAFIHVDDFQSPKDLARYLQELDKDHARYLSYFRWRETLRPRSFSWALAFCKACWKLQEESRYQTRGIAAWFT
Protocol: Sera were collected from healthy females and ovarian cancer patients admitted to Roswell Park Cancer Institute in Buffalo, N.Y., USA. Ovarian tumor tissues were obtained during surgical procedures from patients with ovarian cancer. Both sera and tissues were stored frozen at -70° C. until use.
(§1) An incubation mixture contained 50 mM HEPES-NaOH, pH 7.5, 5 mM MnC12, 7 mM ATP, 3 mM NaN3, the acceptor 0.3 mM (for serum enzyme) or 3.0 mM (for tumor enzyme), 0.125 μCi of GDP-[U-^14 C] Fuc (Sp. Act. 216 mCi/mmol) and enzyme in a total volume of 0.10 ml; the control incubation mixture had everything except the acceptor. At the end of incubation at 37° C. for 18 h, the mixture was diluted with 1 ml water and passed through Dowex-1-C1 column (1 ml in a Pasteur pipet). The column was washed twice with 1 ml water; the breakthrough and wash, which contained the [^14 C] fucosylated neutral acceptor, were collected together in a scintillation vial and counted for radioactivity using the scintillation coctail 3a70 (Research Products International, Mount Prospects, Ill.) and Beckman LS9000. The Dowex column was then eluted successively with 3 ml each of 0.1M and 0.2M NaCl; these eluates which contained the [^14 C] fucosylated sulfated acceptors, were counted for radioactivity as before. Corrections were made by subtracting the radioactivity in the water and NaCl eluates of the control incubation mixture from the corresponding test fractions. The duplicate runs of samples gave almost identical values, the difference being <5%.
The activity of serum α1,3-fucosyltransferase was measured with the specific substrate 2'-methyl LacNAc and compared with the ability of several other synthetic substrates to act as an acceptor of fucose.
When the structure of the acceptor 2'-methyl LacNAc was modified by replacing the methyl group with sulfate group in C-2', 3', 6' or 6 position and tested their ability to act as the acceptor of fucose, the following novel findings emerged. […] The β-benzyl glycoside of 3' sulfo LacNAc was quite active (168.4%) but less than the parent compound.

[2] = tested on: α1,3-L-fucosyltransferase of the soluble fraction of human ovarian tumor; test: Assay of α1,3-fucosyltransferase with synthetic acceptors, partially purified enzyme of ovarian tumor soluble fraction; assay type: biochemical; conditions: for [14C] Fucose Incorporated (CPM): acceptor 3.0 mM, 37° C. 18 h
Protocol: as §1
As shown in the scheme set forth in FIG. 2, the α-L-fucosidase-free extract of the tissue (40 g), after concentration by 80% (NH4)2 SO4 precipitation was fractionated on bovine IgG glycopep-Sepharose in batches of 25 ml. After washing the column with the equilibration buffer, the bound enzyme was eluted with 1 M NaCl in the same buffer. The protein positive fractions were pooled and processed as shown in the scheme 2.0 ml of the above preparation was loaded on a Sephacryl S-200 column (Superfine:2.6 cm×88.0 cm) equilibrated at 4° C. with 50 mM Tris-HC1, pH 7.0 containing 0.15M NaCl and 0.1% Triton X-100 and eluted with the same buffer. Fractions of 3.0 ml were collected. The fucosyltransferase activity was located in the effluent fractions, by assaying first every 5th fraction and then obtaining the activity profile by assaying the alternate fractions in that range, using 2'-fucosyl LacNAc as the acceptor. […] Its elution position, which is slightly later than BSA, run separately on the same column, indicates its molecular weight as <67,000 daltons. […] The enzyme has been purified 66 fold over the soluble extract with a recovery of 6.2%. The enzyme at this stage lost its activity either kept frozen at -20° C. or left at 4° C. for more than a week. However, the enzyme at the end of the previous step was fairly stable for at least two months at 4° C. So this preparation of enzyme was used in acceptor ability comparison studies.
When α1,3-fucosyltransferase activity of the partially purified enzyme preparation from the soluble portion of ovarian tumor was measured and compared with the activity of other acceptors, the following results were obtained. 2'-methyl LacNAc, LacNAc and Galβ1, 3GlcNAc were respectively 100.0%, 60.6% and 565.5% active, indicating the presence of both α1,3 and α1,4 fucosyltransferase activities in this preparation.

[3] = tested on: α1,3-L-fucosyltransferase of the particulate fraction of ovarian tumor; test: Assay of α1,3-fucosyltransferase with synthetic acceptors, ovarian tumor particulate fraction; assay type: biochemical, human; conditions: for Relative Percent: 2'-methyl LacNAc = 100; for [14C] Fucose Incorporated (CPM): acceptor 3.0 mM, 37° C. 18 h
Protocol: FIG. 2 The scheme for the preparation of the particulate and soluble fractions of human ovarian tumor.
as §1
This finding is quite different from what we found with the soluble fraction, where α1,4-fucosyltransferase activity seems to be greater than α1,3-fucosyltransferase activity. […] The different nature of the above enzymes was made further clear, when sulfated derivatives of LacNAc was tested as acceptors.

Structure (SMILES)	Relative Percent [1] [%]	[14C] Fucose Incorporated (CPM) [1] [CPM]	Relative Percent ([2]; 2'-methyl LacNAc = 100) [%]	[14C] Fucose Incorporated (CPM) [2] [CPM]	Relative Percent [3] [%]	[14C] Fucose Incorporated (CPM) [3] [CPM]	Relative Percent ([2]; 2'-methyl LacNAc = 100, listed as 2' sulfo LacNAc) [%]	Relative Percent ([2]; 2'-methyl LacNAc = 100, listed as 2' sulfo-LacNAc) [%]	Relative Percent ([2]; 2'-methyl LacNAc = 100, listed as β-benzyl glycoside of Galβ1, 3 Glc NAc) [%]	Relative Percent ([2]; 2'-methyl LacNAc = 100, listed as β-benzyl glycoside of Galβ1,3GlcNAc) [%]	Relative Percent ([2]; 2'-methyl LacNAc = 100, listed as 6' sulfo LacNAc) [%]	Relative Percent ([2]; 2'-methyl LacNAc = 100, listed as 6-'-sulfo LacNAc) [%]	Relative Percent ([2]; 2'-methyl LacNAc = 100, listed as Galβ1, 3 GlcNAc) [%]	Relative Percent ([2]; 2'-methyl LacNAc = 100, listed as Galβ1, 3GlcNAc) [%]
CO[C@H]1[C@H](O[C@H]2[C@H](O)[C@@H](NC(C)=O)[C@H](OCc3ccccc3)O[C@@H]2CO)O[C@H](CO)[C@H](O)[C@@H]1O [2'-methyl LacNAcβ-O--Bn]	307.9	5326	113.2	8367	149.2	71989								
CC(=O)N[C@H]1C(O)O[C@H](CO)[C@@H](O[C@@H]2O[C@H](CO)[C@H](O)[C@H](O)[C@H]2O[C@@H]2O[C@@H](C)[C@@H](O)[C@@H](O)[C@@H]2O)[C@@H]1O (stereo partly shown) [2'-Fucosyl LacNAc, 2'-Fucosyl N-acetyllactosamine]	253.1	4379	436.1	32235	144.7	69824								
CC(=O)N[C@H]1C(O)O[C@H](CO)[C@@H](O[C@@H]2O[C@H](CO)[C@H](O)[C@H](O)[C@H]2OS(=O)(=O)O)[C@@H]1O (stereo partly shown) [2'-Sulfo LacNAc]	22.0	380	32.7	2414	9.8	4718	33	32.7						
CC(=O)N[C@H]1[C@H](OCc2ccccc2)O[C@H](CO)[C@@H](O[C@@H]2O[C@H](CO)[C@H](O)[C@H](O)[C@H]2O[C@@H]2O[C@@H](C)[C@@H](O)[C@@H](O)[C@@H]2O)[C@@H]1O [2'-Fucosyl LacNAcβ-O--Bn]	425.0	7352	373.0	27571	174.0	83975								
CC(=O)N[C@H]1[C@@H](Oc2ccccc2[N+](=O)[O-])O[C@H](CO[C@@H]2O[C@H](CO)[C@@H](O)[C@H](O)[C@H]2NC(C)=O)[C@H](O)[C@@H]1O [G1cNAcβ1,6Ga1NAcα-O--ONp]	9.5	164	0	0										
CC(=O)N[C@H]1[C@H](OCc2ccccc2)O[C@H](CO)[C@@H](O[C@@H]2O[C@H](CO)[C@H](O)[C@H](O)[C@H]2O)[C@@H]1O [LacNAcβ-O--Bn]	358.8	6207	111.6	8249	132.9	64223								
CC(=O)N[C@H]1[C@H](OCc2ccccc2)O[C@H](CO)[C@@H](O)[C@@H]1O[C@@H]1O[C@H](CO)[C@H](O)[C@H](O)[C@H]1O [Ga1β1,3G1cNAcβ-O--Bn]	21.7	376	1004.5	74260	37.8	18221			1005	1004.5				
CC(=O)N[C@H]1C(O)O[C@H](CO)[C@@H](O[C@@H]2O[C@H](CO)[C@H](O)[C@H](O)[C@H]2O)[C@@H]1O[C@@H]1O[C@@H](C)[C@@H](O)[C@@H](O)[C@@H]1O (stereo partly shown) [3-Fucosyl LacNAc]	4.7	82	1.9	144	3.7	1801								
CC(=O)N[C@H]1C(O)O[C@H](CO)[C@@H](O[C@@H]2O[C@H](COS(=O)(=O)O)[C@H](O)[C@H](O)[C@H]2O)[C@@H]1O (stereo partly shown) [6'-Sulfo LacNAc]	36.2	626	5.3	395	42.6	20543					5	5.3		
CC(=O)N[C@H]1C(O)O[C@H](CO)[C@@H](O[C@@H]2O[C@H](CO)[C@H](O)[C@H](O)[C@H]2O)[C@@H]1O (stereo partly shown) [LacNAc]	93.4	1615	60.6	4480	61.8	29842								
CC(=O)N[C@H]1C(O)O[C@H](CO)[C@@H](O)[C@@H]1O[C@@H]1O[C@H](CO)[C@H](O)[C@H](O)[C@H]1O (stereo partly drawn) [Ga1β1,3G1cNAc]	13.1	227	565.5	41802	34.2	16511							566	565.5
CO[C@@H]1O[C@H](CO)[C@H](O)[C@H](O[C@@H]2O[C@H](CO)[C@@H](O)[C@H](O[C@@H]3O[C@H](CO)[C@H](O)[C@H](O)[C@H]3O)[C@H]2NC(C)=O)[C@H]1O [Ga1β1,3G1cNAcβ1,3Ga1β-O--Me]	42.7	739			42.6	20559								
